Results from ChEMBL document CHEMBL5729562, “Proteasome activity enhancing compounds” (2023).

Target: Ubiquitin carboxyl-terminal hydrolase 14 (Homo sapiens, UniProt P54578)
Test: Usp14 Inhibition Assay: Usp14 Inhibition Assay was described in B. H. Lee et al. Nature 2010, 467 (9), 179.

Chain of Ubiquitin carboxyl-terminal hydrolase 14 (P54578 whole entry): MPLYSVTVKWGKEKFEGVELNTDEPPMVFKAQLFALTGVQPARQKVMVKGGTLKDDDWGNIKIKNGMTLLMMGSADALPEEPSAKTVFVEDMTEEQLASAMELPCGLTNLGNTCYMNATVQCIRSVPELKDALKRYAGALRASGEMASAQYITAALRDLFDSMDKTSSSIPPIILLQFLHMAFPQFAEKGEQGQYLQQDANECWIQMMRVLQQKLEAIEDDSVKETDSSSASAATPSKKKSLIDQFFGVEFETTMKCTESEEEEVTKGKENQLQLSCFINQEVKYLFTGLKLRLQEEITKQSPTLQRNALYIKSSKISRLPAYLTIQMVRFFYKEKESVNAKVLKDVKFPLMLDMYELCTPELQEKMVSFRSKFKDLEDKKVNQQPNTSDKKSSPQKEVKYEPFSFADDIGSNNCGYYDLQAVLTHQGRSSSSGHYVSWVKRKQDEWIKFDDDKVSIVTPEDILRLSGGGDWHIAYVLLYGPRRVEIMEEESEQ

SMILES	IC50 [nM]
Cc1c(C(=O)CN2C3CCC2CC3)cc(C#CCCC#N)n1-c1ccc(C#N)cc1	< 50
Cc1c(C(=O)CN2C3CC4CC2CC(C3)O4)cc(CCCCC#N)n1-c1ccc(C#N)cc1	< 50
